According to PubChem BioAssay AID1208 (EPA DSSTox, 2008):
The source made the active and inactive calls.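 How the source made its calls: active means at least one rat sex group has a carcinogenic potency value and tumor site recorded; inconclusive means only rat studies were judged inadequate by the national testing program; inactive means no potency or tumor site, with negative rat experiments.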

Tested on: rat chronic carcinogenicity bioassay, TD50
Test: DSSTox (CPDBAS) Carcinogenic Potency Database Summary Rat Bioassay Results
Conditions: for Potency: hits give low values
Excerpt: The Carcinogenic Potency Database (CPDB) is a unique and widely used international resource of the results of over 6500 chronic, long-term animal cancer tests on over 1500 chemical substances. The CPDB provides easy access to the bioassay literature, with qualitative and quantitative analyses of both positive and negative experiments that have been published over the past 50 years in the general literature and by the National Cancer Institute/National Toxicology Program. The CPDB standardizes the diverse literature of cancer bioassays that vary widely in protocol, histopathological examination and nomenclature, and in the published author's choices of what information to provide in their papers. Results are reported in the CPDB for tests in rats, mice, hamsters, dogs, and nonhuman primates, and are based on the most positive result among all experiments for each sex-species. The DSSTox CPDBAS (all species) file incorporates data from the CPDB Summary Tables for the full list of over 1500 chemical substances tested in at least one species. Summary bioassay results for Rat (TD50, tumor sites, male, female, both sexes) are provided in the CPDB Summary Tables and the DSSTox CPDBAS file for over 1200 chemical substances.
TD50 is a standardized quantitative measure of carcinogenic potency (analogous to an LD50) and is reported in the CPDB Summary Table for each species. Activity Score for actives is computed by mapping of LOG10 (1/TD50_Rat_mmol) activity values spanning range [MIN, MAX] onto Integer 1-100 Activity Score range, where 100 is highest potency and 1 is lowest: Activity Score = 100 * INTEGER[(log10(1/Activity) - MIN)/(MAX - MIN)]. If activity is reported but no TD50_Rat_mmol value is computed, such as for a mixture, the Activity Score is assigned the activity value "50". […] Target sites are reported for each sex-species group with a positive result in the CPDB on the basis of a positive author's opinion for the particular site, using all results from both the general literature and NCI/NTP bioassays. If a chemical has two or more target sites listed, the results may be from different experiments, and a single site may be a target organ in more than one experiment, as well. Blank entry in TargetSites field indicates no results reported.

[1] = TD50_Rat_Note: no positive results, TargetSites_Rat_Female: no positive results
[2] = TD50_Rat_Note: TD50 is harmonic mean of more than one positive test, TargetSites_Rat_Female: stomach
[3] = TD50_Rat_Note: no positive results, TargetSites_Rat_BothSexes: no positive results
[4] = TD50_Rat_Note: TD50 is harmonic mean of more than one positive test, TargetSites_Rat_Female: liver
[5] = TargetSites_Rat_Female: no positive results

Compound: CC(C)=NNc1ncc(-c2ccc([N+](=O)[O-])o2)s1
- Potency (TargetSites_Rat_Female: stomach): 6.05 mg/kg/day

Compound: CCCCNC(=O)N(CCCC)N=O
- Potency (TargetSites_Rat_Female: hematopoietic system, mammary gland): 4.28 mg/kg/day

Compound: CC1(C)S[C@@H]2[C@H](NC(=O)COc3ccccc3)C(=O)N2[C@H]1C(=O)O
- outcome [1]: inactive; no positive results

Compound: S=P(N1CC1)(N1CC1)N1CC1
- Potency (TD50_Rat_Note: positive test results only by intraperitoneal or intravenous injection, TD50 is harmonic mean of more than one positive, TargetSites_Rat_Female: ear Zymbals gland): 0.164 mg/kg/day

Compound: N[C@@H](Cc1c[nH]c2ccccc12)C(=O)O
- outcome [1]: inactive; no positive results

Compound: CC(C)=CCl
- Potency (TD50_Rat_Note: TD50 is harmonic mean of more than one positive test, TargetSites_Rat_Female: esophagus, nasal cavity, oral cavity, stomach): 31.8 mg/kg/day

Compound: CCCl
- outcome [1]: inactive; no positive results

Compound: O=NN1CCCC1
- Potency (TD50_Rat_Note: TD50 is harmonic mean of more than one positive test, harmonic mean of TD50 includes a value for upper 99% confidence li, TargetSites_Rat_Female: liver, vascular system): 0.799 mg/kg/day

Compound: Clc1ccccc1Cl
- outcome [1]: inactive; no positive results

Compound: NC(=O)N(CC(=O)O)N=O
- Potency (TD50_Rat_Note: TD50 is harmonic mean of more than one positive test, greater than ten-fold variation among TD50 values for positive res, TargetSites_Rat_Female: mammary gland, small intestine): 4.31 mg/kg/day

Compound: Cc1cn([C@H]2C[C@H](N=[N+]=[N-])[C@@H](CO)O2)c(=O)[nH]c1=O
- Potency (TargetSites_Rat_Female: vagina): 11600 mg/kg/day

Compound: CC(=O)OCC(=O)[C@@]12N=C(C)O[C@@H]1C[C@H]1[C@@H]3CCC4=CC(=O)C=C[C@]4(C)[C@H]3[C@@H](O)C[C@@]12C
- outcome (TD50_Rat_Note: TD50 not calculated by CPDB Source, TD50_Rat_mmol was not calculated, but Activiity Score is assigned value of 50 to ind, TargetSites_Rat_Female: no positive results): active; bone

Compound: FCCl
- Potency [2]: 27.5 mg/kg/day

Compound: [O]=[Bi]
- outcome [3]: inactive

Compound: Cc1cc(N=Nc2ccccc2C)ccc1N
- Potency [4]: 4.04 mg/kg/day

Compound: Cc1ccc2cc3c(ccc4ccccc43)c3c2c1CC3
- Potency (TD50_Rat_Note: TD50 is harmonic mean of more than one positive test, harmonic mean of TD50 includes a value for upper 99% confidence li, TargetSites_Rat_Female: mammary gland): 0.491 mg/kg/day

Compound: CC(C)(C)c1cc([N+](=O)[O-])cc([N+](=O)[O-])c1OS(C)(=O)=O
- outcome [1]: inactive; no positive results

Compound: CCSC[C@H](N)C(=O)O
- outcome (TD50_Rat_Note: no positive results): inactive; no positive results

Compound: C[C@@H]1C/C=C/C=C/C=C/C=C/[C@H](O[C@@H]2O[C@H](C)[C@@H](O)[C@H](N)[C@@H]2O)C[C@@H]2O[C@](O)(C[C@@H](O)C[C@H]3O[C@@H]3/C=C/C(=O)O1)C[C@H](O)[C@H]2C(=O)O
- outcome [1]: inactive; no positive results

Compound: O=S(=O)(O)c1ccc(N=Nc2c(O)ccc3cc(S(=O)(=O)O)ccc23)cc1
- outcome [1]: inactive; no positive results

Compound: CC(=O)Nc1ccc(S(=O)(=O)O)c2cc(S(=O)(=O)O)c(N=Nc3ccc(N=Nc4ccc(S(=O)(=O)O)cc4)c4ccc(S(=O)(=O)O)cc34)c(O)c12
- outcome [1]: inactive; no positive results

Compound: O=NN1CCCCO1
- Potency (TargetSites_Rat_BothSexes: all tumor bearing animals): 24.3 mg/kg/day

Compound: CC(=O)NCc1nc(-c2ccc([N+](=O)[O-])o2)no1
- Potency (TD50_Rat_Note: no positive results are statistically significant, TargetSites_Rat_Female: kidney, lung): 59.6 mg/kg/day

Compound: O=C1c2ccccc2C(=O)c2c(O)cccc21
- Potency (TD50_Rat_Note: TD50 is harmonic mean of more than one positive test): 93.5 mg/kg/day

Compound: O=[N+]([O-])c1ccc(Oc2ccc(Cl)cc2Cl)cc1
- Potency (TargetSites_Rat_Female: pancreas): 420 mg/kg/day

Compound: OCc1ccco1
- Potency [5]: 9.6 mg/kg/day

Compound: CN(C)N
- outcome [1]: inactive; no positive results

Compound: [O-]/[N+](=N\O)c1ccccc1
- Potency (TD50_Rat_Note: TD50 is harmonic mean of more than one positive test, TargetSites_Rat_Female: ear Zymbals gland, liver, stomach, vascular system): 8.35 mg/kg/day

Compound: ON=C1CCCC1
- Potency: 40.9 mg/kg/day

Compound: O=S(=O)(c1ccc(Cl)cc1)c1ccc(Cl)cc1
- outcome [1]: inactive; no positive results

Compound: O=[N+]([O-])c1cccc2ccccc12
- outcome [1]: inactive; no positive results

Compound: C[C@H]1CCCCN1N=O
- Potency (TargetSites_Rat_BothSexes: nervous system): 13.2 mg/kg/day

Compound: CN1C(C(=O)Nc2ccccn2)=C(O)c2sc(Cl)cc2S1(=O)=O
- outcome [1]: inactive; no positive results

Compound: O=Cc1ccccc1
- outcome [1]: inactive; no positive results

Compound: Cc1cccc(C)c1
- Potency (TD50_Rat_Note: TD50 is harmonic mean of more than one positive test, TargetSites_Rat_Female: oral cavity, Maltoni head cancers): 3110 mg/kg/day
- outcome [1]: inactive; no positive results

Compound: ClC1=C(Cl)C(Cl)(Cl)C(Cl)=C1Cl
- outcome [1]: inactive; no positive results

Compound: CN(C)CCOc1ccc(/C(=C(/CCCl)c2ccccc2)c2ccccc2)cc1
- outcome [1]: inactive; no positive results

Compound: NC(=S)NNC(N)=S
- outcome [1]: inactive; no positive results

Compound: Cc1ccc(S(=O)(=O)OCCN(C)N=O)cc1
- Potency (TD50_Rat_Note: TD50 is harmonic mean of more than one positive test, TargetSites_Rat_Female: liver, vascular system): 4.8 mg/kg/day

Compound: [Cl-].[Cl-].[Cl-].[Fe+3]
- outcome [1]: inactive; no positive results

Compound: CN(C)N=O
- Potency (TD50_Rat_Note: TD50 is harmonic mean of more than one positive test, greater than ten-fold variation among TD50 values for positive res, TargetSites_Rat_Female: liver, vascular system): 0.0959 mg/kg/day

Compound: Cc1ccc(/C(=C\CN2CCCC2)c2ccccn2)cc1
- outcome [1]: inactive; no positive results

Compound: CCn1cc(C(=O)O)c(=O)c2ccc(C)nc21
- Potency (TD50_Rat_Note: TD50 is harmonic mean of more than one positive test, TargetSites_Rat_Female: clitoral gland): 201 mg/kg/day

Compound: Nc1cc(Cl)cc(C(=O)O)c1Cl
- outcome [1]: inactive; no positive results

Compound: CC(C)NCC(O)COc1cccc2ccccc12 (stereo not drawn)
- outcome [1]: inactive; no positive results

Compound: CCN(CC)N=O
- Potency (TD50_Rat_Note: TD50 is harmonic mean of more than one positive test, greater than ten-fold variation among TD50 values for positive res, TargetSites_Rat_Female: esophagus, liver, oral cavity, stomach): 0.0265 mg/kg/day

Compound: CC(=O)Nc1nnc(-c2ccc([N+](=O)[O-])o2)s1
- Potency (TargetSites_Rat_Female: hematopoietic system, kidney, lung, small intestine, stomach, vascular system): 8.84 mg/kg/day

Compound: [O]=[Mo](=[O])=[O]
- outcome [1]: inactive; no positive results

Compound: O=C(O)c1ccccc1-c1c2cc(I)c(=O)c(I)c-2oc2c(I)c(O)c(I)cc12
- outcome [1]: inactive; no positive results

Compound: Cc1ccccc1N=O
- Potency: 50.7 mg/kg/day

Compound: Cn1cnc2nc(N)[nH]c(=O)c21
- outcome [3]: inactive

Compound: CCNc1nc(Cl)nc(NC(C)(C)C#N)n1
- Potency (TargetSites_Rat_Female: mammary gland): 6.33 mg/kg/day

Compound: Cc1ccc(S(=O)(=O)NC(=O)NN2CCCCCC2)cc1
- outcome [1]: inactive; no positive results

Compound: CC(O)CN(N=O)C(=O)NCCCl (stereo not drawn)
- Potency [4]: 0.873 mg/kg/day

Compound: Nc1ccc(/C=C/c2ccc(N)cc2S(=O)(=O)O)c(S(=O)(=O)O)c1
- outcome [1]: inactive; no positive results

Compound: O=NN(CCCC(F)(F)F)CCCC(F)(F)F
- Potency (TD50_Rat_Note: TD50 is harmonic mean of more than one positive test, TargetSites_Rat_Female: liver, lung): 0.748 mg/kg/day

Compound: NCCCC(N)(C(=O)O)C(F)F (stereo not drawn)
- outcome [1]: inactive; no positive results

Compound: O=C1CN(/N=C/c2ccc([N+](=O)[O-])o2)C(=O)N1
- Potency [5]: 163 mg/kg/day

Compound: O=c1[nH]cc(F)c(=O)[nH]1
- outcome [1]: inactive; no positive results

Compound: O=NN1CCCC1c1cccnc1 (stereo not drawn)
- Potency: 0.0957 mg/kg/day

Compound: Nc1ccc(-c2ccc(N)cc2)cc1
- Potency (TargetSites_Rat_BothSexes: hematopoietic system, liver, mammary gland): 1.73 mg/kg/day

Compound: Cc1cccc(Nc2cc(Cl)nc(SCC(=O)O)n2)c1C
- Potency (TD50_Rat_Note: TD50 is harmonic mean of more than one positive test, harmonic mean of TD50 includes a value for upper 99% confidence li): 4.36 mg/kg/day

Compound: C[C@]12CC[C@H](O)CC1=CC[C@@H]1[C@@H]2CC[C@]2(C)C(=O)CC[C@@H]12
- Potency [4]: 83.5 mg/kg/day

Compound: CC1=CC(C)(C)N(N=O)c2ccccc21
- Potency (TD50_Rat_Note: positive test results only by intraperitoneal or intravenous injection, TD50_Rat_mmol was not calculated for this mixtur): 3.31 mg/kg/day

Compound: CNC(=O)O/N=C/C(C)(C)SC
- outcome [1]: inactive; no positive results

Compound: Cc1ccc(Cc2cnc(NCCSCc3ccc(CN(C)C)o3)[nH]c2=O)cn1
- Potency [2]: 3360 mg/kg/day

Compound: ClC1C2(Cl)C3C4C5OC5C5C4C1(Cl)C(Cl)(C53)C2(Cl)Cl (stereo not drawn)
- outcome [1]: inactive; no positive results

Compound: CC(=O)Oc1ccccc1C(=O)O
- outcome [3]: inactive; no positive results

Compound: CCN(CC)CCCNC(=O)Cn1ncc(-c2ccccc2)c1-c1ccccc1
- outcome [1]: inactive; no positive results

Compound: Clc1ccc(-c2ccc(Cl)c(Cl)c2Cl)c(Cl)c1Cl
- Potency (TD50_Rat_Note: TD50 is harmonic mean of more than one positive test, TD50_Rat_mmol was not calculated for this mixture, but Activiity S, TargetSites_Rat_Female: liver): 2.81 mg/kg/day

Compound: CCN(CC(F)(F)F)N=O
- Potency: 2.52 mg/kg/day

Compound: c1ccc2occc2c1
- Potency (TargetSites_Rat_Female: kidney): 424 mg/kg/day
